Source: patent US20050233904A1, “Herbicide-safener combination” (Bayer CropScience GmbH, priority 2004, published 2005)

Key:
Assay type in all cases: in vivo
[1] = system: harmful plants such as Sinapis alba, Chrysanthemum segetum, Avena sativa, Stellaria media, Echinochloa crus-galli, Lolium multiflorum, Setaria viridis …; test: Pre-emergence action against weeds (greenhouse pot test, optical scoring vs untreated controls); settings: herbicide-safener combination with the safeners dymron (b-14), fenclorim (b-11), cumyluron (b-4), isoxadifen-ethyl (II-9), mefenpyr-diethyl (II-1), cloquintocet-mexyl (III-1), S3-1, h-1, h-2, h-3, dietholate (b-7), disulfoton (b-5), 1,8-naphthalic anhydride (b-1), fluxofenim (b-10), dichlormid (IV-1), benoxacor (IV-2), flurazole (b-12), R-29148 (IV-4); application rate of 100 g or less of herbicid
Source text: (§1) Seeds or rhizome pieces of monocotyledonous and dicotyledonous weed plants were placed in sandy loam soil in cardboard pots and covered with soil. The active compounds (A) and (B), formulated in the form of wettable powders or emulsion concentrates, were then applied to the surface of the covering soil in various dosages as an aqueous suspension or emulsion using a water application rate of 600 to 800 I/ha (converted).
After the treatment, the pots were placed in a greenhouse and kept under good growth conditions for the weeds. Optical scoring of the damage to the plants or emerged plants was carried out after emergence of the test plants after a trial period of 3 to 4 weeks, in comparison to untreated controls. As shown by the results, the tested herbicide-safener combinations have good herbicidal pre-emergence activity against a broad spectrum of weed grasses and broad-leaved weeds.

[2] = system: harmful plants such as Sinapis alba, Echinochloa crus-galli, Lolium multiflorum, Chrysanthemum segetum, Setaria viridis, Abutilon theophrasti, Amaranthus …; test: Post-emergence action against weeds (greenhouse pot test, visual scoring vs untreated controls); settings: herbicide-safener combination with the safeners dymron (b-14), fenclorim (b-11), cumyluron (b-4), isoxadifen-ethyl (II-9), mefenpyr-diethyl (II-1), cloquintocet-mexyl (III-1), S3-1, h-1, h-2, h-3, dietholate (b-7), disulfoton (b-5), 1,8-naphthalic anhydride (b-1), fluxofenim (b-10), dichlormid (IV-1), benoxacor (IV-2), flurazole (b-12), R-29148 (IV-4); treated at three-leaf stage; application rate
Method: (§2) Seeds or rhizome pieces of monocotyledonous and dicotyledonous weeds were placed into sandy loam soil in plastic pots, covered with soil and grown in a greenhouse under good growth conditions. Three weeks after sowing, the test plants were treated at the three-leaf stage. The compounds according to the invention, formulated as wettable powders or as emulsion concentrates, were sprayed onto the green parts of the plants at various dosages using a water application rate of 600 to 800 I/ha (converted). The test plants were stood in the greenhouse under optimum growth conditions for about three to four weeks, and the action of the preparations was then scored visually in comparison to untreated controls. Post-emergence, too, the herbicide-safener combinations according to the invention have good herbicidal activity against a broad spectrum of economically important weed grasses and broad-leaved weeds.

[3] = system: crop plants such as cotton, oil seed rape, sugar beet and Gramineae crops such as barley, wheat, rye, millet, corn or rice; settings: herbicide-safener combination with the safeners dymron (b-14), fenclorim (b-11), cumyluron (b-4), isoxadifen-ethyl (II-9), mefenpyr-diethyl (II-1), cloquintocet-mexyl (III-1), S3-1, h-1, h-2, h-3, dietholate (b-7), disulfoton (b-5), 1,8-naphthalic anhydride (b-1), fluxofenim (b-10), dichlormid (IV-1), benoxacor (IV-2), flurazole (b-12), R-29148 (IV-4); pre-emergence or post-emergence method; score
Source text: as §1, §2
In further greenhouse trials, seeds of a relatively large number of crop plants and weeds were placed into sandy loam soil and covered with soil. Some of the pots were immediately treated as described in Section 1, the others were placed in a greenhouse until the plants had developed two to three true leaves and were then sprayed with various dosages of the herbicide-safener combinations according to the invention, as described in Section 2.

| SMILES | herbicidal activity against harmful plants, pre-emergence method [1] | herbicidal activity against harmful plants, post-emergence method [2] | damage to crop plants [3] |
| --- | --- | --- | --- |
| CCOc1cc(OC)nc(NC(=O)NS(=O)(=O)c2ncccc2C2=NOCCO2)n1 [Compound I-1] | very good herbicidal activity | very good herbicidal activity | did not cause any damage |
| COc1cc(C)nc(NC(=O)[N-]S(=O)(=O)c2ncccc2C2=NOCCO2)n1.[Na+] [Compound I-3] | very good herbicidal activity | very good herbicidal activity | did not cause any damage |
| COc1cc(N(C)C)nc(NC(=O)NS(=O)(=O)c2ncccc2C2=NOCCO2)n1 [Compound I-8] | very good herbicidal activity | very good herbicidal activity | did not cause any damage |
| COc1cc(Cl)nc(NC(=O)NS(=O)(=O)c2ncccc2C2=NOCCO2)n1 [Compound I-9] | very good herbicidal activity | very good herbicidal activity | did not cause any damage |
| COc1cc(Cl)nc(NC(=O)[N-]S(=O)(=O)c2ncccc2C2=NOCCO2)n1.[Na+] [Compound I-10] | very good herbicidal activity | very good herbicidal activity | did not cause any damage |
| COc1cc(OC)nc(NC(=O)NS(=O)(=O)c2ncccc2C2=NOCCO2)n1 [Compound I-11] | very good herbicidal activity | very good herbicidal activity | did not cause any damage |
| COc1cc(OC)nc(NC(=O)[N-]S(=O)(=O)c2ncccc2C2=NOCCO2)n1.[Na+] [Compound I-12] | very good herbicidal activity | very good herbicidal activity | did not cause any damage |
| CCOc1cc(OCC)nc(NC(=O)[N-]S(=O)(=O)c2ncccc2C2=NOCCO2)n1.[Na+] [Compound I-14] | very good herbicidal activity | very good herbicidal activity | did not cause any damage |
| CCOc1cc(Cl)nc(NC(=O)NS(=O)(=O)c2ncccc2C2=NOCCO2)n1 [Compound I-21] | very good herbicidal activity | very good herbicidal activity | did not cause any damage |
| CCOc1cc(Cl)nc(NC(=O)[N-]S(=O)(=O)c2ncccc2C2=NOCCO2)n1.[Na+] [Compound I-22] | very good herbicidal activity | very good herbicidal activity | did not cause any damage |
| Cc1cc(C)nc(NC(=O)NS(=O)(=O)c2ncccc2C2=NOCCO2)n1 [Compound I-23] | very good herbicidal activity | very good herbicidal activity | did not cause any damage |
| Cc1cc(Cl)nc(NC(=O)NS(=O)(=O)c2ncccc2C2=NOCCO2)n1 [Compound I-29] | very good herbicidal activity | very good herbicidal activity | did not cause any damage |
| Cc1cc(Cl)nc(NC(=O)[N-]S(=O)(=O)c2ncccc2C2=NOCCO2)n1.[Na+] [Compound I-30] | very good herbicidal activity | very good herbicidal activity | did not cause any damage |
| COc1nc(NC(=O)NS(=O)(=O)c2ncccc2C2=NOCCO2)nc(OC)n1 [Compound I-51] | very good herbicidal activity | very good herbicidal activity | did not cause any damage |
| COc1nc(NC(=O)[N-]S(=O)(=O)c2ncccc2C2=NOCCO2)nc(OC)n1.[Na+] [Compound I-52] | very good herbicidal activity | very good herbicidal activity | did not cause any damage |
| COc1nc(NC(=O)[N-]S(=O)(=O)c2ncccc2C2=NOCCO2)nc(N(C)C)n1.[Na+] [Compound I-60] | very good herbicidal activity | very good herbicidal activity | did not cause any damage |
| CCOc1nc(Cl)nc(NC(=O)[N-]S(=O)(=O)c2ncccc2C2=NOCCO2)n1.[Na+] [Compound I-70] | very good herbicidal activity | very good herbicidal activity | did not cause any damage |
| CN(C)c1nc(NC(=O)NS(=O)(=O)c2ncccc2C2=NOCCO2)nc(OCC(F)(F)F)n1 [Compound I-142] | very good herbicidal activity | very good herbicidal activity | did not cause any damage |
| O=C(Nc1nc(Cl)cc(OCC(F)(F)F)n1)NS(=O)(=O)c1ncccc1C1=NOCCO1 [Compound I-143] | very good herbicidal activity | very good herbicidal activity | did not cause any damage |
| O=C([N-]S(=O)(=O)c1ncccc1C1=NOCCO1)Nc1nc(Cl)cc(OCC(F)(F)F)n1.[Na+] [Compound I-145] | very good herbicidal activity | very good herbicidal activity | did not cause any damage |
